Peptide text beside a SMILES is read from it.
Legend:
E. tarda = test: Host resistance assay, Experiment Two: pre-injection 2 h before bacteria; format: in vivo, Medaka; conditions: injected 2 h prior to E. tarda
Procedure: FIG. 11A is a plot showing the effect of Peptide A on viability of cultured mammalian cells, incubated for 48 h in the presence of Peptide A at different concentrations (μg/ml), as determined by MTT assay. Cell viability represented as peptide treated cell numbers over medium-only control. Statistically significant difference as compared to controls (*: p<0.05, **: p<0.01, n=4). FIG. 11B is a plot showing the ability of Peptide A to protect medaka from lethal challenge of E. tarda ([…]). Medaka was injected with 1 μl of Peptide A (0.68 mM), with 1 μl of E. tarda (10^7 CFU/ml) and Peptide A (0.68 mM) mixture, or with E. tarda alone (1 μl of E. tarda:10^7 CFU/ml). […] 20 fish per group. Log-rank (Mantel-Cox) test was applied for the comparison of survival curves (**: p<0.01).
The efficacy of the synthesized AMP to protect medaka against infection was characterized using host resistance assays with intraperitoneal (i.p.) injection of bacteria using a micro-injection machine (PV820 Pneumatic PicoPump). In Experiment One, 80 medaka fish were used and divided into four groups (20 fish in each group, male, 6 months): (1) Group 1 was injected with only 1 μl of PBS in each fish; (2) Group 2 was injected with only 1 μl of novel AMP (0.68 mM) in each fish; (3) Group 3 was injected with 1 μl of bacteria (at a titer of 5×10^7 CFU/ml); and (4) bacteria and novel AMP were mixed for 5 min and then 1 μl of the mixture was injected into Group 4 (Bacteria: 5×10^7 CFU/ml, AMP: 0.68 mM). In Experiment Two, 60 fish were used and divided into three groups: each fish was injected with 1 μl of PBS, ampicillin (5.7 mM) or Peptide A (1.36 mM). The fish were anesthetized in MS222 for 30 s before microinjection. After two hours, 1 μl of bacteria (5×10^7 CFU/ml) was injected into the fish. All of the fishes were kept under a static condition of 26° C.±1° C., with 14:10 hrs of a light-dark cycle. The water was replaced every two days. The fish were fed three times each day. The number of dead fish was counted on a daily basis until two weeks after the injections.

E. coli PQ37 = test: SOS induction (chromotest); format: cell-based
Procedure: (§1) Results are expressed as 2^(−Delta Delta C (T)). […] Results are expressed as 2^(−Delta Delta C (T)).
E. coli PQ37 (Genotype: Sfi A and Lac Z fusion, lac Z) was cultured in lysogeny broth (LB) that contained 57.2 μM of ampicillin overnight (37° C.) and subcultured through 20 dilutions on another day so that OD600 equals to 0.2-0.4. PQ37 was incubated in 0.3 ml AMP (3.4 μM) or Piscidin ([…], 3.77 μM) for 2 hours and then re-suspended in the same volume of Z-buffer (Na2HPO4.7H2O 16.1 g/l, NaH2PO4.2H2O 6.24 g/L, KCl 0.75 g/L, MgSO4.7H2O 0.246 g/L and b-mercaptoethanol 0.3% (v/v)) for carrying out a β-galactosidase assay (β-ga) and alkaline phosphatase assay (ap), respectively. The bacteria were lysed with 0.1 ml of 0.1% SDS and 0.15 ml of chloroform. For the β-ga assay, the reaction was started by adding 0.6 ml of ortho-Nitrophenyl-β-galactoside (ONPG; Catalog number 34055, ThermoFisher Scientific) for color development and then stopped with the addition of 2 ml of 1 M NaCO3 solution. For ap acsay, the reaction was started by adding 0.6 ml of para-Nitrophenylphosphate (PNPP; Catalog number 34045, ThermoFisher Scientific) for color development which was then terminated by the addition of 1 ml of 2 M HCl solution and 1 ml of 2 M Tri-HCl to restore the colour. The absorbance was read at 420 nm against a blank without bacteria. The induction factor (IF) was calculated as the ratio R(x)/R(0) (R(x)=β-g/ap determined for the tested peptide; R(0)=β-g/ap determined for the LB). Furacin (antibiotic) and Piscidin were chosen as the controls. Each experiment was performed in triplicate.

E. coli [1] = format: cell-based
CpxR = test: Quantitative real-time PCR; format: cell-based; conditions: E. tarda, Piscidin 7.5 μM, 1 hour
Excerpt: as §1
Each group has 6 biological replicates. […] Gene-specific primers were designed with Primer-BLAST (NCBI).

E. coli [2] = test: Antibacterial activities of the peptide analogs (relative OD600); format: cell-based
Excerpt: FIG. 10 is a plot showing the antibacterial activities of the peptide analogs on E. coli. C-amidation: C-terminus amidated Peptide A; B1: RIILRAQGALKI; B2: IRIILRAQGALK; B3: RIILR. Results expressed as relative OD600 compared to culture medium group (%) (*: p<0.05, **: p<0.01, n=3)

## CC1(C)S[C@@H]2[C@H](NC(=O)[C@H](N)c3ccccc3)C(=O)N2[C@H]1C(=O)O [Ampicillin, reference compound]
E. tarda; one day post injection, Peptide A 1.37 mM, Ampicillin 5.7 mM, 1 μl
  initial survival rate: about 45%
E. tarda; two weeks after infection
  effect on E. tarda infection / surviving fish: ineffective

## NC(=O)N/N=C/c1ccc([N+](=O)[O-])o1 [Furacin]
E. coli PQ37; E. coli, different doses of Furacin
  SOS response (expression of LacZ), positive control: dose-dependent expression of LacZ

## CC(C)C[C@H](NC(=O)[C@H](Cc1ccc(O)cc1)NC(=O)[C@H](Cc1c[nH]cn1)NC(=O)[C@H](CCCCN)NC(=O)[C@H](CC(C)C)NC(=O)[C@H](C)NC(=O)[C@H](CC(C)C)NC(=O)[C@H](CCCCN)NC(=O)CNC(=O)[C@@H](NC(=O)[C@@H](NC(=O)[C@H](CCCCN)NC(=O)[C@@H](NC(=O)[C@H](CCC(=O)O)NC(=O)[C@H](C)NC(=O)[C@H](CCCCN)NC(=O)[C@H](CCCCN)NC(=O)[C@H](CC(C)C)NC(=O)[C@H](CC(C)C)NC(=O)[C@@H](NC(=O)[C@H](CCCNC(=N)N)NC(=O)[C@H](Cc1c[nH]c2ccccc12)NC(=O)CN)[C@@H](C)O)C(C)C)[C@@H](C)O)C(C)C)C(=O)O [Piscidin] (H-GWRTLLKKAEVKTVGKLALKHYL-OH; N-terminus and C-terminus assumed)
E. coli [1]
  MIC for E. coli: 3.77 µM
CpxR
  CpxR gene expression: no effect
E. coli PQ37; E. coli PQ37, 120 min, Peptide A 3.4 μM, Piscidin 3.77 μM
  SOS response (induction factor): no effect on SOS response

## IRIILRAQGALK [Peptide B2, Peptide A with the C-terminal amino acid removed]
E. coli [2]
  antibacterial activity compared with Peptide A: reduce the antibacterial effect

## RIILR [Peptide B3]
E. coli [2]
  antibacterial activity compared with Peptide A: much weaker antibacterial activity

## RIILRAQGALKI [Peptide B1, Peptide A with the N-terminal amino acid removed]
E. coli [2]
  antibacterial activity compared with Peptide A: reduce the antibacterial effect
